Consider two compounds from paper PMC12549899 (Nature Communications, 2025).

One assay has as its target T1, mouse OTOP1 (mOTOP1) (Mus musculus, UniProt Q80VM9).
T1 construct: expressed in transfected cells; host or cells: HEK-293 (CRL-1573, ATCC)
T1 sequence (Q80VM9 1-600): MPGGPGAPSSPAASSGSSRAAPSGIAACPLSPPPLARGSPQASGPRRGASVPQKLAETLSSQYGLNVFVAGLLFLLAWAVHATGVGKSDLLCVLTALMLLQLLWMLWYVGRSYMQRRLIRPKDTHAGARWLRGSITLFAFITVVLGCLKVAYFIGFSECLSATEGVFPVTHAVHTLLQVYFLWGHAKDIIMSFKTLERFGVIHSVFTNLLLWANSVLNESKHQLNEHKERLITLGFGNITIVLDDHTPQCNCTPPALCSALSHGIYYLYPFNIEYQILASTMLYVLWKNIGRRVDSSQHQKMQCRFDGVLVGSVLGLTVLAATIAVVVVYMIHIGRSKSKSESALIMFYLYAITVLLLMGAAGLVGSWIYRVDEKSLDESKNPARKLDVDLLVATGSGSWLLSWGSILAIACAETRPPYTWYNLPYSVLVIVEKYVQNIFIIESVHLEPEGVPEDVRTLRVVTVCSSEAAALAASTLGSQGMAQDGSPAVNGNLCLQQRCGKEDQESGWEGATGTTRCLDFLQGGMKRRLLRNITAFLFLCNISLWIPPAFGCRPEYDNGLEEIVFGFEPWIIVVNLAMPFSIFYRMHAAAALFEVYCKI
Description: Whole-cell patch-clamp, inhibition of currents, mOTOP1 in HEK-293 cells. In kind it is cell-based. The note with it: HEK293, 100 µM (saturating concentration of C2.2). An excerpt: (§1) The second series of compounds was again tested by whole-cell patch-clamp recording of DrOTOP1 expressed in HEK-293 cells. Of the 54 compounds tested, we identified 16 that inhibited DrOTOP1 acid-induced currents by over 25% (Fig. 2D and Supplementary Fig. 3E). […] The Hill coefficient of 1.52 indicated positive cooperativity and multiple binding sites, similar to C11. We next tested each of these compounds against mouse OTOP1 (mOTOP1) and human (Homo sapiens) OTOP1 (hOTOP1), which are among the closest related proteins in the mammalian proteome. […] For both compounds, we also determined whether there was any pH-dependence to their inhibitory effect by measuring dose-response curves over a range from pH 6.0, where sizable currents first appear, to pH 5.0. […]
(§2) Whole-cell patch-clamp recording was performed as previously described[6],[22],[25]. Recordings were made with an Axopatch 200B amplifier, digitized with a Digidata 1322a 16-bit data acquisition system, acquired with pClamp 8.2 and analyzed with Clampfit 10 (Molecular Devices). […]
(§3) All data are presented as mean ± SEM unless otherwise noted, and each data point represents an independent replicant. Inhibition of compounds was quantified as ((I2peak-I1)/(I2peak))*100, where I1 is the current immediately before wash-off and I2peak is the maximum recovered current (Supplementary Fig. 2). […]
(In general: In patch-clamp work, channel activity is measured electrically.)

A further assay has as its target T2, human OTOP1 (hOTOP1) (Homo sapiens, UniProt Q7RTM1).
T2 construct: expressed in transfected cells; host or cells: HEK-293 (CRL-1573, ATCC)
T2 sequence (Q7RTM1 1-612): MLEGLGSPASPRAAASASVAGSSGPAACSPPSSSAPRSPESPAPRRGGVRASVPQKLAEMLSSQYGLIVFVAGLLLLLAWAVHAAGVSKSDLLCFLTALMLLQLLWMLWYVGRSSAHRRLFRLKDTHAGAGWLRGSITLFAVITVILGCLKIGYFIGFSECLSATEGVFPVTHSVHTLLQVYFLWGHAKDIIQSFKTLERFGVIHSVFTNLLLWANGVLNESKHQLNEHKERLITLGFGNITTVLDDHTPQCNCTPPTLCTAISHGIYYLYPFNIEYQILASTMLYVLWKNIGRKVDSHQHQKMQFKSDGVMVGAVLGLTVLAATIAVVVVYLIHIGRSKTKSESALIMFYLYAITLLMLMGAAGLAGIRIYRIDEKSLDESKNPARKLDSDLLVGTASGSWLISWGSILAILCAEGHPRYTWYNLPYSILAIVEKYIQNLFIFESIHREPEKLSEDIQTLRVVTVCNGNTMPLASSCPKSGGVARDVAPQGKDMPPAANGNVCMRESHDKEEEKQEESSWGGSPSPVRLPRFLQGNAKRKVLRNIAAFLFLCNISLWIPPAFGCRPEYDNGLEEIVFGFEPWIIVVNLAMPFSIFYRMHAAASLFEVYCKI
Nature of the assay: Whole-cell patch-clamp, inhibition of currents, hOTOP1 in HEK-293 cells. The class given is cell-based. The note with it: HEK293, 300 µM (saturating concentration of C11).
Description: as §1, §2, §3

By inhibition is commonly meant how much of the control response was suppressed. A high value points to a strong effect. On to `C=C(C)COc1ccccc1NC(=O)c1nc[nH]c1C` [C2.2], for which the inhibition at 100 µM against mouse OTOP1 (mOTOP1) was found to be 1.92%. Compound `O=C(/C(=N\O)c1ccccc1)c1ccccc1` [C11, benzil monoxime] displayed an inhibition at 300 µM on human OTOP1 (hOTOP1) of around 24%.
